Assay results taken from patent publication US20250367268A1, “Compositions and Methods for Treating Internal Bleeding and Hemorrhage” (priority 2024, published 2025).

What was measured:
[1] = test system: Trauma and 27 ml/kg hemorrhagic shock; assay: Second albumin study: trauma and 27 ml/kg hemorrhagic shock model, albumin bolus then crystalloid as needed; format: in vivo
Procedure: Rats were acclimated for at least 5 days after arrival at the facility prior to experimental procedures. Trauma and 27 ml/kg hemorrhagic shock models in the art were used with some modifications: 1) an extended observation period considered entirely pre-hospital to represent prolonged field care and 2) a reduction in isoflurane during hemorrhage, intended to reduce the mortality prior to resuscitation (FIG. 28). Rats were assigned into 4 treatment groups: Crystalloid (N=15), OA-saturated BSA (OA-BSA; N=17), CA-saturated BSA (CA-BSA; N=17), and pharmaceutical HSA (N=17). Adult, male Sprague Dawley rats (Charles River Laboratories, Houston, TX) between 325 and 400 g in body weight (BW) were induced with isoflurane (4%) in medical air, then maintained at 2-3% throughout instrumentation. Core temperature was maintained (36-37° C.) using a heating pad and monitored with a rectal probe (Physitemp, Clifton, NJ). The carotid artery was cannulated for continuous pressure recording, the left femoral artery for controlled hemorrhage, and the left femoral vein for blood sampling and resuscitation fluid administration. PE50 tubing for vessel cannulations was soaked overnight in heparin to reduce clotting.
Laparotomy was performed to induce trauma, then the opening was covered with plastic wrap. […]

hemorrhagic shock = format: in vivo, rats
Procedure: Two studies of resuscitation by albumin after hemorrhage were performed. In the first study, resuscitation by a crystalloid (control) was compared to resuscitation with either a bolus of bovine serum albumin (BSA) saturated with oleic acid (OA-BSA) or a bolus of NEFA-free albumin, followed by crystalloid, as needed. As commercially available pharmaceutical grade albumin is human albumin (HSA) that is nearly saturated with caprylic acid, instead of oleic acid, in the second study OA-BSA, caprylic acid-saturated BSA (CA-BSA), and pharmaceutical grade human serum albumin (HSA) were compared. A crystalloid-only group (“Crystalloid Only Group”) was also run as a control. […] There were no significant differences among the Albumin Groups (all containing high concentrations of NEFA) in any of the other measurements.
Laparotomy was performed to induce trauma, then the opening was covered with plastic wrap. The right hind leg was elevated and an inflatable tourniquet (digit cuff, Hokanson, Bellevue, WA) was positioned on the leg, but not yet inflated. For the second albumin study, isoflurane was lowered to 1% immediately before start of hemorrhage. Rats were hemorrhaged (2 ml/min/kg BW) by syringe pump until MAP dropped to 35 mmHg (designated as time T=0 h). At that time, the tourniquet was inflated using a Portable Tourniquet System (Delfi Medical, Vancouver, Canada), representing first aid. The controlled hemorrhage rate was then reduced to 0.6 ml/min/kg to simulate hemorrhage not controlled by tourniquet (e.g., from another injury site or imperfect application). Blood pressure was maintained at 33-38 mmHg by adjusting the draw rate (0.2-0.8 ml/min/kg), until the total hemorrhage reached 27 ml/kg. […] The bolus size was chosen as the estimated dosage needed to replace the albumin lost to hemorrhage. […] At T=2 h, representing the maximum recommended time before conversion to hemostatic dressing 16, the tourniquet was deflated and removed. Surviving animals were euthanized at T=4 h by intravenous administration of 0.2 ml of sodium pentobarbital euthanasia solution (Beuthanasia, Merck Animal Health, Madison, NJ), while still under anesthesia. After euthanasia, the right lung was harvested for moisture analysis (MA160, Sartorious, Bohemia, NY) and the left lung for collection of BALF (3X bronchoalveolar lavage fluid with 3 ml saline). Following the final lavage, the left lung was infused with formalin fixative for histological analysis. The liver, heart, spleen, kidney, and jejunum were also collected and fixed in formalin for histological analysis.

For CA-BSA: caprylic acid-saturated BSA, which “loss of protein from the circulation (plasma/total protein T2 to T4)” value ([1]; second study, FIG. 2 and FIG. 3) is on record?
Its value is “significant drop”.

What does the source list for “NEFA-free albumin: albumin preparation with a NEFA content of 0-0.14% by weight of albumin; bovine serum albumin in the experiments”?
amount of resuscitation fluid required to keep pressure at a sufficient level (hemorrhagic shock; first study): 46 mL/kg; effect on pressure relative to OA-BSA and Crystalloid Only Group (hemorrhagic shock; first study): intermediate between the other two groups; vascular leakage (hemorrhagic shock; rat, in vivo): did not cause vascular leakage

Which “loss of protein from the circulation (plasma/total protein T2 to T4)” value ([1]; rat, in vivo) does the source give for “OA-BSA: bovine serum albumin (BSA) saturated with oleic acid, 25% bolus” here?
Its value is “significant drop”.

What about the “amount of resuscitation fluid required to keep pressure at a sufficient level” value (hemorrhagic shock; first study) of the same substance?
Its value is 6 mL/kg.

What about the “significantly reduced mortality compared to the Crystalloid Only Group” value (hemorrhagic shock; first study) of the same substance?
Its value is “significantly reduced mortality”.

And the mortality (hemorrhagic shock; first study, FIG. 4)?
Its mortality is 8%.
